Reference: patent EP4603105A1, “PHARMACEUTICAL COMPOSITION CONTAINING CYCLIC COMPOUND HAVING SELECTIVE KRAS INHIBITORY EFFECT AGAINST HRAS AND NRAS” (CHUGAI SEIYAKU KABUSHIKI KAISHA, priority 2022, dated 2024)
pIC50: −log10 of the molar value. *1 amine or outer side, *2 acyl side, *3 side chain or, on linkers, in order; H or OH if unused. Where a SMILES comes first, the peptide text is derived from it. Bridges are numbered along the chain shown (N, C = ends). [ ]: non-standard residue; d: D form. The star is where a group is joined. hPhe(3-Cl-4-CF3) = N[C@@H](CCc1ccc(C(F)(F)F)c(Cl)c1)C(=O)O; NPrPhe(4-CF3) = CCCN[C@@H](Cc1ccc(C(F)(F)F)cc1)C(=O)O; NPrAsp = CCCN([C@@H](CC(=O)[*:3])C(=O)[*:2])[*:1]; NEtAsp = CCN([C@@H](CC(=O)[*:3])C(=O)[*:2])[*:1]; NMeGly(cPent) = CN[C@H](C(=O)O)C1CCCC1; Ac4c(3,3-Me2) = CC1(C)CC(N)(C(=O)O)C1; NMeNva(3-Et) = CCC(CC)[C@H](NC)C(=O)O; NEtLeu = CCN[C@@H](CC(C)C)C(=O)O; NMeD = CN[C@@H](CC(=O)O)C(=O)O; NMeL = CN[C@@H](CC(C)C)C(=O)O; NMeNva = CCC[C@H](NC)C(=O)O; Morpholide = C1CN(*)CCO1; NMeA = CN[C@@H](C)C(=O)O; Ac5c = NC1(C(=O)O)CCCC1; Aze = O=C(O)[C@@H]1CCN1; Ac4c = NC1(C(=O)O)CCC1; Sar = CNCC(=O)O; Propyl = CCC*

Key:
[1] = tested on: human lung cancer strain NCI-H441; format: cell-based
Method in brief: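 Readout: […] after the ATP-based reagent. Compound: serial dilutions in dimethyl sulfoxide.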

[2] = biological target: GDP-bound NRAS wild-type protein (Homo sapiens, UniProt P01111); assay: Binding to NRAS by surface plasmon resonance (SPR), KD and KD ratio to KRAS; conditions: ratio of the KD value with respect to GDP-bound NRAS wild-type protein to the KD value with respect to KRAS
Method in brief: (§1)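 GDP-bound biotin-Avi RAS captured at ~100–300 RU, 30°C, pH 7.4 HBS containing 10 µM GDP, 10 mM MgCl2, 1 mM DTT, 0.01% Tween 20 and 4% DMSO. KD by 1:1 fitting.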

HRAS wild-type protein = HRAS wild-type protein (Homo sapiens, UniProt P01112); assay: Binding to HRAS by surface plasmon resonance (SPR), KD and KD ratio to KRAS; conditions: ratio of the KD value with respect to HRAS wild-type protein to the KD value with respect to KRAS
Method in brief: as §1

Chain of GDP-bound NRAS wild-type protein (P01111 whole entry): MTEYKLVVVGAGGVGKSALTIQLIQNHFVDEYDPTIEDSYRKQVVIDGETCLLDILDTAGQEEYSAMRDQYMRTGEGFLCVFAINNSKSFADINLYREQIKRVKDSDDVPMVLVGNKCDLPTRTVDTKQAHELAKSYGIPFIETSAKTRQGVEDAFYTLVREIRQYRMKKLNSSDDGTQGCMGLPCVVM
Chain of HRAS wild-type protein (P01112 whole entry): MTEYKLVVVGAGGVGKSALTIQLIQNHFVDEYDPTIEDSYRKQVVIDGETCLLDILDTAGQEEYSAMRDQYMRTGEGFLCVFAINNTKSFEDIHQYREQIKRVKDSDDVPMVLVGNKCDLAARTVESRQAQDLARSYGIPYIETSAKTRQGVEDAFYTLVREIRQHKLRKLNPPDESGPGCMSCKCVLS

SMILES	pIC50 [1]	NRAS /KRAS [2]	HRAS /KRAS (HRAS wild-type protein)
CCC[C@H]1C(=O)N[C@@H]([C@@H](C)CC)C(=O)N(C)CC(=O)N(C)CC(=O)N(CCC)[C@@H](Cc2ccc(C(F)(F)F)cc2)C(=O)N(C)CC(=O)N[C@@H](CCc2ccc(C(F)(F)F)c(Cl)c2)C(=O)N2CCC[C@H]2C(=O)NC2(CCC2)C(=O)N(C)[C@@H](C2CCCC2)C(=O)N(CCC)[C@H](C(=O)N2CCOCC2)CC(=O)N1C [PP1954] ([NMeNva]I[Sar][Sar][NPrPhe(4-CF3)][Sar][hPhe(3-Cl-4-CF3)]P[Ac4c][NMeGly(cPent)][NPrAsp]-Morpholide; lactam N-11)	8.09	B (a compound having 3 or more and less than 10 is denoted as B)	B (a compound having 3 or more and less than 10 is denoted as B)
CCCN1C(=O)CN(C)C(=O)CN(C)C(=O)[C@H]([C@@H](C)CC)NC(=O)[C@H](CC(C)C)N(C)C(=O)C[C@@H](C(=O)N(C)C)N(CC)C(=O)[C@H](C2CCCC2)N(C)C(=O)C2(CCC2)NC(=O)[C@@H]2CCCN2C(=O)[C@H](CCc2ccc(C(F)(F)F)c(Cl)c2)NC(=O)CN(C)C(=O)[C@@H]1Cc1ccc(C(F)(F)F)cc1 [PP1956] ([NMeL]I[Sar][Sar][NPrPhe(4-CF3)][Sar][hPhe(3-Cl-4-CF3)]P[Ac4c][NMeGly(cPent)][NEtAsp]-NMe2; lactam N-11)	8.66	B (a compound having 3 or more and less than 10 is denoted as B)	B (a compound having 3 or more and less than 10 is denoted as B)
CCCN1C(=O)[C@@H]2CCN2C(=O)[C@H](C)N(C)C(=O)[C@H]([C@@H](C)CC)NC(=O)[C@H](CC(C)C)N(C)C(=O)C[C@@H](C(=O)N(C)C)N(CC)C(=O)[C@H](C2CCCC2)N(C)C(=O)C2(CCC2)NC(=O)[C@@H]2CCCN2C(=O)[C@H](CCc2ccc(C(F)(F)F)c(Cl)c2)NC(=O)CN(C)C(=O)[C@@H]1Cc1ccc(C(F)(F)F)cc1 [PP1957] ([NMeL]I[NMeA][Aze][NPrPhe(4-CF3)][Sar][hPhe(3-Cl-4-CF3)]P[Ac4c][NMeGly(cPent)][NEtAsp]-NMe2; lactam N-11)	8.07	C (A compound having a KD ratio of 0.1 or more and less than 3 is denoted as C)	B (a compound having 3 or more and less than 10 is denoted as B)
CCCN1C(=O)CN(C)C(=O)CN(C)C(=O)[C@H]([C@@H](C)CC)NC(=O)[C@H](CC(C)C)N(C)C(=O)C[C@@H](C(=O)N2CCOCC2)N(C)C(=O)[C@H](C(CC)CC)N(C)C(=O)C2(CCC2)NC(=O)[C@@H]2CCCN2C(=O)[C@H](CCc2ccc(C(F)(F)F)c(Cl)c2)NC(=O)CN(C)C(=O)[C@@H]1Cc1ccc(C(F)(F)F)cc1 [PP1958] ([NMeL]I[Sar][Sar][NPrPhe(4-CF3)][Sar][hPhe(3-Cl-4-CF3)]P[Ac4c][NMeNva(3-Et)][NMeD]-Morpholide; lactam N-11)	7.24	B (a compound having 3 or more and less than 10 is denoted as B)	B (a compound having 3 or more and less than 10 is denoted as B)
CCCN1C(=O)CN(C)C(=O)CN(C)C(=O)[C@H]([C@@H](C)CC)NC(=O)[C@H](CC(C)C)N(C)C(=O)C[C@@H](C(=O)N(C)C)N(C)C(=O)[C@H](C(CC)CC)N(C)C(=O)C2(CCC2)NC(=O)[C@@H]2CCCN2C(=O)[C@H](CCc2ccc(C(F)(F)F)c(Cl)c2)NC(=O)CN(C)C(=O)[C@@H]1Cc1ccc(C(F)(F)F)cc1 [PP1960] ([NMeL]I[Sar][Sar][NPrPhe(4-CF3)][Sar][hPhe(3-Cl-4-CF3)]P[Ac4c][NMeNva(3-Et)][NMeD]-NMe2; lactam N-11)	8.22	B (a compound having 3 or more and less than 10 is denoted as B)	C (A compound having a KD ratio of 0.1 or more and less than 3 is denoted as C)
CCCN1C(=O)[C@@H]2CCN2C(=O)[C@H](C)N(C)C(=O)[C@H]([C@@H](C)CC)NC(=O)[C@H](CC(C)C)N(C)C(=O)C[C@@H](C(=O)N(C)C)N(C)C(=O)[C@H](C(CC)CC)N(C)C(=O)C2(CCC2)NC(=O)[C@@H]2CCCN2C(=O)[C@H](CCc2ccc(C(F)(F)F)c(Cl)c2)NC(=O)CN(C)C(=O)[C@@H]1Cc1ccc(C(F)(F)F)cc1 [PP1961] ([NMeL]I[NMeA][Aze][NPrPhe(4-CF3)][Sar][hPhe(3-Cl-4-CF3)]P[Ac4c][NMeNva(3-Et)][NMeD]-NMe2; lactam N-11)	8.10	C (A compound having a KD ratio of 0.1 or more and less than 3 is denoted as C)	C (A compound having a KD ratio of 0.1 or more and less than 3 is denoted as C)
CCCN1C(=O)CN(C)C(=O)CN(C)C(=O)[C@H]([C@@H](C)OC)NC(=O)[C@H](CC(C)C)N(C)C(=O)C[C@@H](C(=O)N2CCOCC2)N(C)C(=O)[C@H](C2CCCC2)N(C)C(=O)C2(CC(C)(C)C2)NC(=O)[C@@H]2CCCN2C(=O)[C@H](CCc2ccc(C(F)(F)F)c(Cl)c2)NC(=O)CN(C)C(=O)[C@@H]1Cc1ccc(C(F)(F)F)cc1 [PP1963] ([NMeL]T(Me)[Sar][Sar][NPrPhe(4-CF3)][Sar][hPhe(3-Cl-4-CF3)]P[Ac4c(3,3-Me2)][NMeGly(cPent)][NMeD]-Morpholide; lactam N-11)	8.04	B (a compound having 3 or more and less than 10 is denoted as B)	C (A compound having a KD ratio of 0.1 or more and less than 3 is denoted as C)

Further compounds by rising pIC50 [1], results first:

pIC50 [1]	SMILES	NRAS /KRAS [2]	HRAS /KRAS (HRAS wild-type protein)
7.76	CCCO[C@H](C)[C@@H]1NC(=O)[C@H](CC(C)C)N(C)C(=O)C[C@@H](C(=O)N2CCOCC2)N(C)C(=O)[C@H](C2CCCC2)N(C)C(=O)C2(CC(C)(C)C2)NC(=O)[C@@H]2CCCN2C(=O)[C@H](CCc2ccc(C(F)(F)F)c(Cl)c2)NC(=O)CN(C)C(=O)[C@H](Cc2ccc(C(F)(F)F)cc2)N(CCC)C(=O)CN(C)C(=O)CN(C)C1=O [PP1965] ([NMeL]T(Propyl)[Sar][Sar][NPrPhe(4-CF3)][Sar][hPhe(3-Cl-4-CF3)]P[Ac4c(3,3-Me2)][NMeGly(cPent)][NMeD]-Morpholide; lactam N-11)	B (a compound having 3 or more and less than 10 is denoted as B)	B (a compound having 3 or more and less than 10 is denoted as B)
7.83	CCC[C@H]1C(=O)N[C@@H]([C@@H](C)CC)C(=O)N(C)[C@@H](C)C(=O)N2CC[C@H]2C(=O)N(CCC)[C@@H](Cc2ccc(C(F)(F)F)cc2)C(=O)N(C)CC(=O)N[C@@H](CCc2ccc(C(F)(F)F)c(Cl)c2)C(=O)N2CCC[C@H]2C(=O)NC2(CCC2)C(=O)N(C)[C@@H](C(CC)CC)C(=O)N(C)[C@H](C(=O)N2CCOCC2)CC(=O)N1C [PP1959] ([NMeNva]I[NMeA][Aze][NPrPhe(4-CF3)][Sar][hPhe(3-Cl-4-CF3)]P[Ac4c][NMeNva(3-Et)][NMeD]-Morpholide; lactam N-11)	C (A compound having a KD ratio of 0.1 or more and less than 3 is denoted as C)	B (a compound having 3 or more and less than 10 is denoted as B)
7.96	CCCN1C(=O)CN(C)C(=O)CNC(=O)[C@H]([C@@H](C)CC)NC(=O)[C@H](CC(C)C)N(CC)C(=O)C[C@@H](C(=O)N2CCOCC2)N(C)C(=O)[C@H](C2CCCC2)N(C)C(=O)C2(CCCC2)NC(=O)[C@@H]2CCCN2C(=O)[C@H](CCc2ccc(C(F)(F)F)c(Cl)c2)NC(=O)CN(C)C(=O)[C@@H]1Cc1ccc(C(F)(F)F)cc1 [PP1967] ([NEtLeu]IG[Sar][NPrPhe(4-CF3)][Sar][hPhe(3-Cl-4-CF3)]P[Ac5c][NMeGly(cPent)][NMeD]-Morpholide; lactam N-11)	B (a compound having 3 or more and less than 10 is denoted as B)	B (a compound having 3 or more and less than 10 is denoted as B)
7.99	CCCN1C(=O)CN(C)C(=O)CN(C)C(=O)[C@H]([C@@H](C)OCC)NC(=O)[C@H](CC(C)C)N(C)C(=O)C[C@@H](C(=O)N2CCOCC2)N(C)C(=O)[C@H](C2CCCC2)N(C)C(=O)C2(CC(C)(C)C2)NC(=O)[C@@H]2CCCN2C(=O)[C@H](CCc2ccc(C(F)(F)F)c(Cl)c2)NC(=O)CN(C)C(=O)[C@@H]1Cc1ccc(C(F)(F)F)cc1 [PP1964] ([NMeL]T(Et)[Sar][Sar][NPrPhe(4-CF3)][Sar][hPhe(3-Cl-4-CF3)]P[Ac4c(3,3-Me2)][NMeGly(cPent)][NMeD]-Morpholide; lactam N-11)	B (a compound having 3 or more and less than 10 is denoted as B)	B (a compound having 3 or more and less than 10 is denoted as B)
8.36	CCC[C@H]1C(=O)N[C@@H]([C@@H](C)CC)C(=O)N(C)[C@@H](C)C(=O)N2CC[C@H]2C(=O)N(CCC)[C@@H](Cc2ccc(C(F)(F)F)cc2)C(=O)N(C)CC(=O)N[C@@H](CCc2ccc(C(F)(F)F)c(Cl)c2)C(=O)N2CCC[C@H]2C(=O)NC2(CCC2)C(=O)N(C)[C@@H](C2CCCC2)C(=O)N(CC)[C@H](C(=O)N2CCOCC2)CC(=O)N1C [PP1955] ([NMeNva]I[NMeA][Aze][NPrPhe(4-CF3)][Sar][hPhe(3-Cl-4-CF3)]P[Ac4c][NMeGly(cPent)][NEtAsp]-Morpholide; lactam N-11)	C (A compound having a KD ratio of 0.1 or more and less than 3 is denoted as C)	B (a compound having 3 or more and less than 10 is denoted as B)
